Where two headings read alike, the source gives them in different places.
Experiments:
sigma-1 receptors = sigma-1 receptors (Homo sapiens (Human), UniProt Q99720); experiment: biochemical; assay type: binding
[1] = Drug stability in human liver microsomes; assay type: in vitro ADME
Source text: Testing of Drug Stability in Human Liver Microsomes
This assay involves exposing a test compound to vesicles which contain the contents of digestive organelles (endoplasmic reticula) derived from human liver cells. The tests were done by Microconstants Inc., San Diego, Calif., using methods substantially as described in J. R. Hill, “In vitro drug metabolism using liver microsomes,” Curr. Protocols Pharmacol., Chapter 7, Unit 7.8 (2004), John Wiley & Sons, Inc.
The results, in Table 1 below, indicate the percentage decomposition of the test compound after 1 hour. […] Although degraded as rapidly, or even more rapidly than DM, other compounds remain of interest due to their receptor binding activities, as detailed further below.

[2] = molecular target: phencyclidine site of NMDA-type glutamate receptors; experiment: NMDA receptor (phencyclidine site) radioligand binding inhibition
Method: In vitro binding assays for the phencyclidine site of NMDA-type glutamate receptors, and for sigma-1 receptors, both of which are known to be bound by DM, were conducted by Sekisui Medical Co., Ltd. of Ibaraki, Japan. In these assays, DM acts as an antagonist at NMDA receptors, which are excitatory in their effects, thereby allowing DM to reduce, calm, and modulate unwanted neuronal activity in neuronal networks that are activated by glutamate agonist activity at NMDA receptors. DM acts as an agonist at sigma-1 receptors, which are inhibitory receptors, thereby allowing DM to reduce unwanted neuronal activity by a second mechanism. Assays for sigma-1 and NMDA (phencyclidine site) receptor affinities, based on inhibition of radioligand binding, provided the results shown in Table 2 below.

[3] = Caco-2 bidirectional permeability assay; assay type: in vitro ADME; parameters: Papp A→B / Papp B→A: dose or concentration left out as unconfirmed; settings: human
Source text: The human colon carcinoma cell Caco-2 provides a well-established and effective model for predicting intestinal absorption of chemicals, and in determining the mechanism of transport. […] The method is used to assess the bidirectional permeability of a test compound, from the apical to the basolateral side (A-B) of a Caco-2 cell monolayer membrane, and vice versa (B-A). R. B. van Breemen, Y. Li, “Caco-2 cell permeability assays to measure drug absorption,” Expert Opin. Drug Metab. […] The transport rate of a compound across the monolayer is highly predictive of the in vivo absorption of the compound across the gut wall, and the Caco-2 permeability assay is an FDA-recommended method for evaluating the absorption of orally-administered drugs. Results of this assay for selected reference drugs and compounds of the invention are set out in Table 3.

[4] = molecular target: human serotonin transporter (Homo sapiens (Human), UniProt P31645); experiment: biochemical; settings: 3H-imipramine binding, HEK-293 membranes; for IC50: read-out: SERT IC50; for Ki: read-out: SERT Ki
Source text: Serotonin Transporter (SERT) Assay
The serotonin transporter (SERT) is a monoamine transporter protein that transports serotonin from the synaptic cleft back to the presynaptic neuron (serotonin reuptake.) Serotonin modulates emotional states in humans, and inhibition of SERT activity is the basis for the SSRI class of antidepressants.

human recombinant hERG = human recombinant hERG (Homo sapiens (Human), UniProt Q12809); experiment: hERG radioligand (3H-astemizole) binding assay
Sequence of human recombinant hERG (Q12809 whole entry, looked up): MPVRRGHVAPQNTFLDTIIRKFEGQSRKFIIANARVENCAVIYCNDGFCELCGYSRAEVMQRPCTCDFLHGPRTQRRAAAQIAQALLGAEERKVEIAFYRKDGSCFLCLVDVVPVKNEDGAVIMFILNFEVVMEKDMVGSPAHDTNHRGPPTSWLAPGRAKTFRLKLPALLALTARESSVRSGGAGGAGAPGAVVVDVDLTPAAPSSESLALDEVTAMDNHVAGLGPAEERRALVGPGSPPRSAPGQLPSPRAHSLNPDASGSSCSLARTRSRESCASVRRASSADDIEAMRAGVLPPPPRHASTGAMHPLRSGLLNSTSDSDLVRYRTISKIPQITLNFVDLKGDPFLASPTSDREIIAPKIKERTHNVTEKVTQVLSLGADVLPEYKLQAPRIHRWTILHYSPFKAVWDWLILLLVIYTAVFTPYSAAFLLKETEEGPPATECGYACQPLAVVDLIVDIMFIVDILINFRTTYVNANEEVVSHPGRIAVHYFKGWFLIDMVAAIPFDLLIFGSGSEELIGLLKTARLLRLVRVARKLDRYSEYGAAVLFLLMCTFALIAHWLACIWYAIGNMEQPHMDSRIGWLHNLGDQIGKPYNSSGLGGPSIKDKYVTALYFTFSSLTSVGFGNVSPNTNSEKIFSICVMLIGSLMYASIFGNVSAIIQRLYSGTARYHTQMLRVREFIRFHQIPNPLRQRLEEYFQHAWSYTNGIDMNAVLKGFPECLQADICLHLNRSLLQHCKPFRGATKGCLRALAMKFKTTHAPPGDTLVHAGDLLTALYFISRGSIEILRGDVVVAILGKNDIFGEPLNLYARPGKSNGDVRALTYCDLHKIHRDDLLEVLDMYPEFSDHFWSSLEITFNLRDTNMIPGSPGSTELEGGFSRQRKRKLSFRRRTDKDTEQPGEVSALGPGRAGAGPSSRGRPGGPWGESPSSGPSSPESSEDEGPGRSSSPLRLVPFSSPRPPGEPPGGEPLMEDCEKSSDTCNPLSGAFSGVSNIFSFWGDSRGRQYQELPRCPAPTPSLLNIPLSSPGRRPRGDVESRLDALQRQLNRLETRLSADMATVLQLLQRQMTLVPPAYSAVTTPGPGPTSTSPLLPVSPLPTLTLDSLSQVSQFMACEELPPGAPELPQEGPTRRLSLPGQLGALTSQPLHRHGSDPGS
Source text: Cardiac Potassium Channel (hERG) Assays
The human ether-a-go-go related gene (hERG) encodes the inward-rectifying voltage-gated potassium channel (IKr) in the heart, which is involved in cardiac repolarization. Inhibition of the hERG current causes QT interval prolongation, potentially resulting in ventricular tachyarrhythmia, and the detection of this potential liability is desirable at an early stage of drug discovery.

μ opioid receptor = μ opioid receptor (Homo sapiens (Human), UniProt P35372); experiment: μ opioid receptor radioligand (3H-diprenorphine) binding assay
κ opioid receptor = κ opioid receptor (Homo sapiens (Human), UniProt P41145); experiment: biochemical; settings: 3H-diprenorphine binding; for IC50: read-out: Opiate κ IC50; for Ki: read-out: Opiate κ Ki
[5] = cited from earlier work
[6] = inhibition of radioligand binding, read-out: Sigma-1 IC50
[7] = inhibition of radioligand binding, read-out: Sigma-1 Ki

Sequence of sigma-1 receptors (Q99720 whole entry, looked up): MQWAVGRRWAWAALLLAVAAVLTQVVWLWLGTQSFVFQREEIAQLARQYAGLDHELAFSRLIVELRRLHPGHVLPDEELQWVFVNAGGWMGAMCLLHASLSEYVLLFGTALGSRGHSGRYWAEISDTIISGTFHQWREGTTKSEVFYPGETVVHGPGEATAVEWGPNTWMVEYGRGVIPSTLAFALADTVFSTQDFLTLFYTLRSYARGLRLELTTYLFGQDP

## CN1CC[C@@]23CCCC[C@@H]2[C@@H]1Cc1ccc(OCC(F)(F)F)cc13 [CNS-222, (1S,9S,10S)-4-(2,2,2-trifluoroethoxy)-17-methyl-17-azatetracyclo[7.5.3.0^1,10.0^2,7]heptadeca-2(7),3,5-triene]
sigma-1 receptors; [6]
  IC50: 50 nM

## CN1CC[C@@]23CCCC[C@@H]2C1Cc1ccc(OCC(F)F)cc13 [CNS1]
[1]
  rate of metabolism and degradation compared with DM: metabolized and degraded less rapidly than DM
  % decomposition at 1 hour: 6.1%

## [2H]C([2H])(Oc1ccc2c(c1)[C@]13CCCC[C@@H]1[C@H](C2)N(C)CC3)C(F)F [CNS1-D2, (1S,9S,10S)-4-(1,1-dideuterio-2,2-difluoroethoxy)-17-methyl-17-azatetracyclo[7.5.3.0^1,10.0^2,7]heptadeca-2(7),3,5-triene]
[1]
  half-life: 123 min
sigma-1 receptors; [6]
  IC50: 57.8 nM
sigma-1 receptors; [7]
  Ki: 40.6 nM
[2]
  IC50: > 30 µM

## CN1CC[C@@]23CCCCC2C1Cc1ccc(OCC(F)F)c(Br)c13 (stereo partly drawn) [CNS6-A1-D2]
[1]
  t1/2: 60 min
sigma-1 receptors; [6]
  IC50: 21.8 nM
sigma-1 receptors; [7]
  Ki: 15.3 nM
[2]
  IC50: > 30 µM

## CC(C)NCC(O)COc1cccc2ccccc12 (stereo not drawn) [Propranolol, reference compound]
[3]; apical to basolateral
  Papp A→B: 21.2 ×10⁻⁶ cm/s
[3]; basolateral to apical
  Papp B→A: 39 ×10⁻⁶ cm/s

## [2H]C([2H])(Oc1ccc2c(c1)[C@]13CCCC[C@@H]1[C@H](C2)NCC3)C(F)F [N-desmethyl CNS1-D2, (1S,9S,10S)-4-(1,1-dideuterio-2,2-difluoro-ethoxy)-17-azatetracyclo[7.5.3.0^1,10.0^2,7]heptadeca-2,4,6-triene]
[1]
  half-life: > 240 min
  % decomposition at 1 hour: 10.1%
[3]; apical to basolateral
  Papp A→B at 0.1 μM: 9.71 ×10⁻⁶ cm/s
  Papp A→B at 1 μM: 10.8 ×10⁻⁶ cm/s
[3]; basolateral to apical
  Papp B→A at 0.1 μM: 6.33 ×10⁻⁶ cm/s
  Papp B→A at 1 μM: 10.1 ×10⁻⁶ cm/s
sigma-1 receptors; [7]
  Ki: 70 nM
[4]
  IC50: 470 nM
  Ki: 279 nM
Human recombinant hERG
  IC50: 26.6 µM
  Ki: 5.73 µM
[2]
  Ki: 3.08 µM
μ opioid receptor
  IC50: 142 µM
  Ki: 26.3 µM
κ opioid receptor
  IC50: 37.7 µM
  Ki: 15.2 µM

## COc1ccc2c(c1)[C@]13CCCC[C@@H]1[C@H](C2)N(C)CC3 [Dextromethorphan (DM), 3-methoxy-17-methyl-(9α,13α,14α)-morphinan, reference compound]
[1]
  half-life: 35 min
  % decomposition at 1 hour: 69%
[5]; fast metabolizers, 30 mg dose, four hours post ingestion
  plasma levels: less than 5 ng/ml
[5]; poor metabolizers, oral dose of 30 mg, at 24 hours
  plasma levels: above 5 ng/ml
[3]; apical to basolateral
  Papp A→B at 0.1 μM: 15.9 ×10⁻⁶ cm/s
  Papp A→B at 1 μM: 19 ×10⁻⁶ cm/s
[3]; basolateral to apical
  Papp B→A at 0.1 μM: 10.8 ×10⁻⁶ cm/s
  Papp B→A at 1 μM: 14.2 ×10⁻⁶ cm/s
sigma-1 receptors
  IC50: 137 nM
  Ki: 96.3 nM
Human recombinant hERG
  IC50: 49.1 µM
  Ki: 10.6 µM
[2]
  IC50: 6.82 µM
  Ki: 4.52 µM
μ opioid receptor
  IC50: 51.7 µM
  Ki: 9.58 µM

## COc1ccc2c(c1Br)[C@]13CCCCC1[C@H](C2)N(C)CC3 (stereo partly drawn) [CNS6-A2]
sigma-1 receptors; [6]
  IC50: 247 nM

## COc1ccc2c(c1)[C@]13CCCCC1C(C2)N(Cc1cccnc1)CC3 (stereo partly drawn) [CNS10]
[1]
  % decomposition at 1 hour: 98.4%

## [2H]C([2H])(Oc1ccc2c(c1)[C@]13CCCC[C@@H]1[C@H](C2)N(CCOC)CC3)C(F)F [CNS27-D2, (1S,9S,10S)-4-(1,1-dideuterio-2,2-difluoro-ethoxy)-17-(2-methoxyethyl)-17-azatetracyclo[7.5.3.0^1,10.0^2,7]-heptadeca-2,4,6-triene]
[3]; apical to basolateral
  Papp A→B at 0.1 μM: 10.2 ×10⁻⁶ cm/s
  Papp A→B at 1 μM: 11.6 ×10⁻⁶ cm/s
[3]; basolateral to apical
  Papp B→A at 0.1 μM: 9.76 ×10⁻⁶ cm/s
  Papp B→A at 1 μM: 13.1 ×10⁻⁶ cm/s
sigma-1 receptors; [7]
  Ki: 1.6 nM
[4]
  IC50: 2680 nM
  Ki: 1590 nM
Human recombinant hERG
  IC50: 22.3 µM
  Ki: 4.8 µM
[2]
  Ki: > 23 µM
μ opioid receptor
  IC50: 124 µM
  Ki: 23 µM
κ opioid receptor
  IC50: 28.8 µM
  Ki: 11.6 µM

## CN1CC[C@@]23CCCC[C@@H]2[C@@H]1Cc1ccc(O)cc13 [Dextorphan (DX), reference compound]
sigma-1 receptors; [6]
  IC50: 259 nM
sigma-1 receptors; [7]
  Ki: 182 nM
[2]
  IC50: 1.53 µM
  Ki: 1.11 µM

## COc1cc2c(cc1Br)CC1C3CCCC[C@@]23CCN1C (stereo partly drawn) [CNS7-M]
sigma-1 receptors
  IC50: > 10000 nM

## CN1CC[C@@]23CCCC[C@@H]2C1Cc1ccc(OCCF)cc13 [CNS2]
[1]
  rate of metabolism and degradation compared with DM: metabolized and degraded less rapidly than DM
  % decomposition at 1 hour: 15.4%

## CN1CC[C@@]23CCCC[C@@H]2[C@@H]1Cc1ccc(O)c(Br)c13 [CNS6, (1S,9S,10S)-3-bromo-4-hydroxy-17-methyl-17-azatetracyclo[7.5.3.0^1,10.0^2,7]-heptadeca-2(7),3,5-triene]
[1]
  % decomposition at 1 hour: 56%
sigma-1 receptors; [6]
  IC50: 172 nM
sigma-1 receptors; [7]
  Ki: 121 nM
[2]
  IC50: > 30 µM

## CN1CC[C@@]23CCCC[C@@H]2[C@@H]1Cc1ccc(OCc2ccncc2)cc13 [CNS4]
[1]
  % decomposition at 1 hour: 100%

## Cc1ccc2c(c1)[C@]13CCCC[C@@H]1[C@H](C2)N(C)CC3 [Dimemorphan (DIM), reference compound]
[1]
  t1/2: 22 min
sigma-1 receptors; [6]
  IC50: 527 nM
sigma-1 receptors; [7]
  Ki: 371 nM
[2]
  IC50: > 30 µM

## [2H]C([2H])(Oc1ccc2c(c1)[C@]1(CCN(C)CC=C)CCCC[C@@H]1C=C2)C(F)F [CNS23-D2]
[1]
  half-life: 32 min
sigma-1 receptors; [6]
  IC50: 11.1 nM
sigma-1 receptors; [7]
  Ki: 7.8 nM

## C=CCN(C)CC[C@@]12CCCC[C@@H]1C=Cc1ccc(OC)cc12 [CNS22]
[1]
  half-life: 36 min
sigma-1 receptors
  IC50: 29.1 nM
  Ki: 20.5 nM

## [2H]C([2H])(Oc1ccc2c(c1)[C@]13CCCC[C@@H]1[C@H](C2)N(C([2H])([2H])[2H])CC3)C(F)F [CNS1-D5, (1S,9S,10S)-4-(1,1-dideuterio-2,2-difluoroethoxy)-17-(trideuteriomethyl)-17-azatetracyclo[7.5.3.0^1,10.0^2,7]-heptadeca-2,4,6-triene]
[1]
  half-life: > 240 min
  % decomposition at 1 hour: 9.7%
[3]; apical to basolateral
  Papp A→B at 0.1 μM: 14.4 ×10⁻⁶ cm/s
  Papp A→B at 1 μM: 18.4 ×10⁻⁶ cm/s
[3]; basolateral to apical
  Papp B→A at 0.1 μM: 12.5 ×10⁻⁶ cm/s
  Papp B→A at 1 μM: 15.4 ×10⁻⁶ cm/s
sigma-1 receptors; [7]
  Ki: 22 nM
[4]
  IC50: 44.1 nM
  Ki: 26.2 nM
Human recombinant hERG
  IC50: 34.5 µM
  Ki: 7.48 µM
[2]
  Ki: 9.9 µM
μ opioid receptor
  IC50: 54.7 µM
  Ki: 10.1 µM
κ opioid receptor
  IC50: 29.8 µM
  Ki: 12 µM
